A word on the IC50: it is the midpoint of a concentration-inhibition curve.

Experimental findings from patent US8759318B2, “Phosphoramidate derivatives of guanosine nucleoside compounds for treatment of viral infections” (Inhibitex, Inc., priority 2009, dated 2014) are described below.

Series [1] is described as follows: Cytotoxicity assay (CellTiter-Glo). Particulars: human, Huh7 HCV replicon cells (genotype 1b).
For series [2], the system named is HCV replicon (Genotype 1b). Put plainly: Luciferase genotype 1b replicon potency assay. The following applies: Hepatitis C virus, GETYPE1B, read-out: IC50 μM, HCV genotype 1b luciferase replicon, Renilla luciferase reporter. For orientation: Replicon systems follow genome replication, usually without infectious particles.
The nature of series [3]: Protide stability in normal plasma, human. The format is in vitro ADME. Particulars: 37° C. Here is the method:
(§1) Selected nucleoside 5′-phosphoramidates were examined for stability in human, cynomolgous monkey, rat and mouse plasma at 37° C. at both 30 min and 90 min time points.
(§2) Protide Stability in Normal Plasma: Plasma samples were prepared for analysis as follows. 50 μl of each test sample were distributed a 96-well V-bottom plate. 200 μl of acetonitrile containing 10 ng/ml of an internal standard was added to each plasma sample. The precipitated samples were centrifuged at 2500 rpm, 4° C. for 20 minutes in a Sorvall RT6000S centrifuge (Thermo Scientific, Waltham Mass.) and 100 μl of supernatant from each sample was transferred into a 96 deep well plate followed by the addition of 100 μl H2O to each sample. Samples were covered, mixed well by vortexing and maintained at 2-8° C. before and during analysis. 15 μl of each test sample was analyzed for protide concentrations by liquid chromatography coupled to tandem mass spectrometry (LC-MS/MS). Liquid chromatography was performed with an Agilent 1100 Series HPLC system equipped with a Synergi 4 μm Polar-RP, 30×2.0 mm column (Phenomenex, Torrance, Calif.). The HPLC system was coupled to an API 4000 triple quadrupole mass spectrometer (Applied Biosystems, Framingham, Mass.). Mass spectrometry was performed in positive ion mode and data was analyzed using Analyst® v1.4.2 software (Applied Biosystems, Framingham, Mass.). Data was presented as the percentage of compound recovered as compared to the 0 time point control.

Series [4] in a line: Protide stability in normal plasma, cynomolgous monkey. The format is in vitro ADME. The following applies: 37° C. How it is done: as §1, §2
Series [5] in a line: Protide stability in normal plasma, rat. The following applies: 37° C. In kind it is in vitro ADME. Here is the method:
as §1, §2

Series [6] can be described thus: Protide stability in normal plasma, mouse. In kind it is in vitro ADME. Particulars: 37° C. Here is the method: as §1, §2
A short description of the next series: in vitro. The following applies: human.
Series [7] is described as follows: Mouse PK: 2'-C-methylguanosine triphosphate levels in liver. The following applies: 2'-C-methylguanosine triphosphate in mouse liver, 50 mg/kg PO.
For series [8] the following is noted: mouse, in vivo, po, 50 mg/kg.
The next series relates to Huh7 replicon cells. Put plainly: Cytotoxicity assay (CellTiter-Glo). Particulars: read-out: CC50 μM; 72 h, CellTiter-Glo.

`CSc1nc(N)nc2c1ncn2[C@@H]1O[C@H](CO)[C@@H](O)[C@@]1(C)O` [Example 88, (2R,3R,4R,5R)-2-(2-amino-6-(methylthio)-9H-purin-9-yl)-5-(hydroxymethyl)-3-methyltetrahydrofuran-3,4-diol] displayed a CC50 at 72 h in [1] of 150 µM. Also, the IC50 in series [2] turned out to be 11 µM.

With `COc1nc(N)nc2c1ncn2C1O[C@H](COP(=O)(N[C@H](C(=O)OCC(C)(C)C)C(C)C)Oc2cccc3ccccc23)[C@@H](O)[C@@]1(C)O` (stereo partly drawn) [Example 42, (2S)-neopentyl 2-((((2R,3R,4R)-5-(2-amino-6-methoxy-9H-purin-9-yl)-3,4-dihydroxy-4-methyltetrahydrofuran-2-yl)methoxy)(naphthalen-1-yloxy)phosphorylamino)-3-methylbutanoate], the “% Compound Remaining Compared to %100 Acetonitrile Control” value turned out to be 88.5% in [3] (30 min); 82.5% in series [3] (1.5 h); 87.0% in [4] (30 min); 82.5% in series [4] (1.5 h); 50.0% in [5] (30 min); 37.0% in series [5] (1.5 h). The entries for the “% Compound Remaining Compared to %100 Acetonitrile Control” value in series [6] (30 min) and in [6] (1.5 h) were 66.5% and 45.5%, respectively. Besides, in the series “in vitro”, the CC50 came to 30 µM. Further, the IC50 in series [2] is 0.21 µM. Besides, in series [7], the AUC0-6 stood at 1540 ng·h/g.

In turn, `CCOc1nc(N)nc2c1ncn2C1O[C@H](CO)[C@@H](O)[C@@]1(C)O` (stereo partly drawn) [Example 72, (3R,4R,5R)-2-(2-amino-6-ethoxy-9H-purin-9-yl)-5-(hydroxymethyl)-3-methyltetrahydrofuran-3,4-diol] displayed a CC50 at 72 h in series [1] above 100 µM. Further, the IC50 in [2] was 11 µM.

`COc1nc(NCc2ccc(F)cc2)nc2c1ncn2[C@@H]1O[C@H](CO)[C@@H](O)[C@@]1(C)O` [Example 92, (2R,3R,4R,5R)-2-(2-(4-fluorobenzylamino)-6-methoxy-9H-purin-9-yl)-5-(hydroxymethyl)-3-methyltetrahydrofuran-3,4-diol] had a CC50 at 72 h in [1] above 100 µM. Besides, the IC50 in series [2] is above 40 µM.

Compound `COc1nc(N)nc2c1ncn2C1O[C@H](CO)C[C@@]1(C)O` (stereo partly drawn) [Example 94, (3R,5S)-2-(2-amino-6-methoxy-9H-purin-9-yl)-5-(hydroxymethyl)-3-methyl-tetrahydrofuran-3-ol] gave a CC50 at 72 h in [1] above 100 µM. The IC50 in series [2] is above 100 µM.

The compound `CNc1nc(N)nc2c1ncn2C1O[C@H](CO)[C@@H](O)[C@@]1(C)O` (stereo partly drawn) [Example 80, (3R,4R,5R)-2-(2-amino-6-(methylamino)-9H-purin-9-yl)-5-(hydroxymethyl)-3-methyltetrahydrofuran-3,4-diol] had a CC50 at 72 h in series [1] above 100 µM. Further, the IC50 in series [2] came out at 13 µM.

`C[C@@]1(O)[C@H](O)[C@@H](CO)O[C@H]1n1cnc2c(NCc3ccccc3)nc(N)nc21` [Example 84, (3R,4R,5R)-2-(2-amino-6-(benzylamino)-9H-purin-9-yl)-5-(hydroxymethyl)-3-methyltetrahydrofuran-3,4-diol]: in series [1], the CC50 at 72 h is above 100 µM. In addition, the IC50 in series [2] came to 27 µM.

For `COc1nc(N)nc2c1ncn2[C@@H]1O[C@H](CO)[C@@H](O)[C@@]1(C)O` [Example 2, (2R,3R,4R,5R)-2-(2-amino-6-methoxy-9H-purin-9-yl)-5-(hydroxymethyl)-3-methyltetrahydrofuran-3,4-diol], in [8], the “Multiple Above IC90 at Cmax” value worked out at 25.1. Also, the CC50 in the series with Huh7 replicon cells is above 100 µM. Further, in [2], the IC50 came out at 3.1 µM. In addition, in series [7], the AUC0-6 stood at 8748 ng·h/g and the AUC0-24 is 30618 ng·h/g.
